Earlier results in patent US12582584B2, “Oxidizer and acid based system and regimen for enhancing skin appearance” (L'OREAL, priority 2021, dated 2026).

Settings: acute oral toxicity, mutagenicity, skin irritation, skin sensitization, phototoxicity

## CC(c1ccccc1)c1ccc(O)cc1O (stereo not shown) [Phenylethyl resorcinol]
  Adverse effects in basic toxicological tests: has not shown adverse effects
